From patent US9145397B2, “Process for the preparation of 1-(2-methyl-4-(2,3,4,5-tetrahydro-1-benzazepin-1-ylcarbonyl) benzylcarbamoyl)-L-proline-N, N-dimethylamide” (Vantia Limited, priority 2011, dated 2015)

How the values were obtained:
vasopressin V2 receptor = target: T1, vasopressin V2 receptor (Rattus norvegicus, UniProt Q00788); experiment: in vivo assay described in PCT/GB2001/000023 (inhibition of urine output); settings: at 1 hour; dosed at 1 mg/Kg
T1 construct: from tissue; host or cells: whole animal, in vivo (endogenous receptor)
Description: The ability of the crystalline form of the invention to agonise the vasopressin V2 receptor may be determined using the in vivo assay described in PCT/GB2001/000023.

[1] = Gravimetric Vapour Sorption Analysis (GVA); format: physicochemical; settings: amorphous solid prepared as in PCT/GB2001/000023
Description: 1-(2-methyl-4-(2,3,4,5-tetrahydro-1-benzazepin-1-ylcarbonyl)benzylcarbamoyl)-L-proline-N,N-dimethylamide was first described in international patent application WO 2001/049682 (PCT/GB2001/000023). […] Moreover, scanning electron micrographs (SEM) of this amorphous form show it to consist of irregular, predominantly large (>5 μm in diameter) aggregates. These properties of the amorphous form render it less suitable for use in a manufacturing process.

T1 sequence (Q00788 whole entry): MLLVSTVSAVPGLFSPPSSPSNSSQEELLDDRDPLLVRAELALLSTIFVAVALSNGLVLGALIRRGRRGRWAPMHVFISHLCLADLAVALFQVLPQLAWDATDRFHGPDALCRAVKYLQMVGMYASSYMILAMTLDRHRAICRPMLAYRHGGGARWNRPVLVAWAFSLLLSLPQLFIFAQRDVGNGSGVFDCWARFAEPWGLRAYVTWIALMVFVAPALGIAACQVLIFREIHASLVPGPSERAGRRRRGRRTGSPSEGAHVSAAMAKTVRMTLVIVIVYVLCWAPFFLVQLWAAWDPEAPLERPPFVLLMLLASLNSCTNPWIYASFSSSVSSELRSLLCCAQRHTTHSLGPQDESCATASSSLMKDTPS

Row | Compound | inhibition of urine output (vasopressin V2 receptor) [%] | hygroscopicity by Gravimetric Vapour Sorption Analysis (GVA) [1]
1 | Cc1cc(C(=O)N2CCCCc3ccccc32)ccc1CNC(=O)N1CCC[C@H]1C(=O)N(C)C [1-(2-methyl-4-(2,3,4,5-tetrahydro-1-benzazepin-1-ylcarbonyl)benzylcarbamoyl)-L-proline-N,N-dimethylamide] | 82 | 
2 | Cc1cc(C(=O)N2CCCCc3ccccc32)ccc1CNC(=O)N1CCC[C@H]1C(=O)N(C)C [amorphous form, 1-(2-methyl-4-(2,3,4,5-tetrahydro-1-benzazepin-1-ylcarbonyl)benzylcarbamoyl)-L-proline-N,N-dimethylamide] |  | hygroscopic
